Data: PMC7023430, “4-Aminobenzoic Acid Derivatives: Converting Folate Precursor to Antimicrobial and Cytotoxic Agents” (Biomolecules, 2019)
Values after ≈ are worked out from the molar mass of the structure shown. Read-outs that look alike come from different tables or passages of the source.

Experiments:
[1] = tested on: methicillin-resistant Staphylococcus aureus ATCC 43300, CCM 4750 (MRSA); experiment: Antibacterial microdilution broth method, MRSA; assay type: cell-based; settings: Staphylococcus aureus
[2] = tested on: Staphylococcus epidermidis H 6966/08; experiment: Antibacterial microdilution broth method, S. epidermidis; assay type: cell-based; settings: Staphylococcus epidermidis, H6966/08, S. epidermidis
[3] = tested on: Enterococcus faecalis ATCC 29212, CCM 4224; experiment: Antibacterial microdilution broth method, E. faecalis; assay type: cell-based; settings: Enterococcus faecalis
[4] = tested on: Escherichia coli ATCC 25922, CCM 3954; experiment: Antibacterial microdilution broth method, E. coli; assay type: cell-based; settings: Escherichia coli
[5] = tested on: Mycobacterium avium 330/88; experiment: Antimycobacterial micromethod in Šula's medium, M. avium; assay type: cell-based
[6] = tested on: Mycobacterium kansasii 235/80; experiment: Antimycobacterial micromethod in Šula's medium, M. kansasii 235/80; assay type: cell-based
[7] = tested on: M. kansasii 6509/96 (clinical isolate); experiment: Antimycobacterial micromethod in Šula's medium, M. kansasii 6509/96; assay type: cell-based; settings: Mycobacterium kansasii
[8] = tested on: Candida albicans ATCC 44859; experiment: Antifungal microdilution broth method, C. albicans; assay type: cell-based
Procedure, shortened: (§1)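 Broth microdilution, EUCAST, modified. Medium: RPMI-1640 + L-glutamine + 2% glucose, MOPS pH 7.0; compounds from DMSO, twofold series. Visual MIC, duplicates, ≤1-step discrepancy accepted.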

Candida krusei E28 = experiment: Antifungal microdilution broth method, C. krusei; assay type: cell-based; settings: Pichia kudriavzevii
Procedure, shortened: as §1

Candida glabrata 20/I = experiment: Antifungal microdilution broth method, C. glabrata; assay type: cell-based; settings: Nakaseomyces glabratus
Procedure, shortened: as §1

Trichosporon asahii 1188 = experiment: Antifungal microdilution broth method, T. asahii; assay type: cell-based
Procedure, shortened: as §1

[9] = tested on: Aspergillus fumigatus 231; experiment: Antifungal microdilution broth method, A. fumigatus; assay type: cell-based
Procedure, shortened: as §1

[10] = tested on: Lichtheimia corymbifera 272; experiment: Antifungal microdilution broth method, L. corymbifera; assay type: cell-based
Procedure, shortened: as §1

[11] = tested on: Trichophyton interdigitale 445; experiment: Antifungal microdilution broth method, T. interdigitale; assay type: cell-based
Procedure, shortened: as §1

HepG2 cells = experiment: Cytotoxicity, CellTiter 96 assay; assay type: cell-based, human; settings: Homo sapiens, HepG2, 24 h, 24 h incubation
Procedure, shortened: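 HepG2 cells (10,000/well) exposed 24 h at 37 °C, 5% CO2 to compounds in DMSO (≤1% v/v final), triplicates. Viability by tetrazolium-to-formazan reduction (CellTiter 96 AQueous One), absorbance 490 nm after 2 h. IC50 from nonlinear regression versus untreated controls; 10% DMSO defined 0% viability.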

[12] = tested on: ESBL-positive Klebsiella pneumoniae J 14368/08
[13] = 24 h incubation, read-out: MIC MRSA 24 h
[14] = 48 h incubation, read-out: MIC MRSA 48 h
[15] = 24 h incubation, read-out: MIC SE 24 h
[16] = 48 h incubation, read-out: MIC SE 48 h
[17] = 24 h incubation, read-out: MIC EF 24 h
[18] = 48 h incubation, read-out: MIC EF 48 h
[19] = 24 h incubation, read-out: MIC EC 24 h
[20] = 48 h incubation, read-out: MIC EC 48 h
[21] = 330/88, 336 h, 14 days incubation at 37 °C, read-out: MIC M. avium 330/88 14 d
[22] = 330/88, 504 h, 21 days incubation at 37 °C, read-out: MIC M. avium 330/88 21 d
[23] = 235/80, 168 h, 7 days incubation at 37 °C, read-out: MIC M. kansasii 235/80 7 d
[24] = 235/80, 336 h, 14 days incubation at 37 °C, read-out: MIC M. kansasii 235/80 14 d
[25] = 235/80, 504 h, 21 days incubation at 37 °C, read-out: MIC M. kansasii 235/80 21 d
[26] = 168 h, 7 days incubation at 37 °C, read-out: MIC M. kansasii 6509/96 7 d
[27] = 336 h, 14 days incubation at 37 °C, read-out: MIC M. kansasii 6509/96 14 d
[28] = 504 h, 21 days incubation at 37 °C, read-out: MIC M. kansasii 6509/96 21 d
[29] = ATCC44859, 24 h, read-out: MIC CA 24 h
[30] = ATCC44859, 48 h, read-out: MIC CA 48 h

SMILES	MIC [1, 13]	MIC [1, 14]	MIC [2, 15]	MIC [2, 16]	MIC [3, 17]	MIC [3, 18]	MIC [4, 19]	MIC [4, 20]	MIC [5, 21]	MIC [5, 22]	MIC [6, 23]	MIC [6, 24]	MIC [6, 25]	MIC [7, 26]	MIC [7, 27]	MIC [7, 28]	MIC [8, 29]	MIC [8, 30]	MIC (Candida krusei E28; 24 h, read-out: MIC CK 24 h)	MIC (Candida krusei E28; 48 h, read-out: MIC CK 48 h)	also measured
O=C(O)c1ccc(N=Cc2cc(I)cc(I)c2O)cc1 [1q, 4-[(2-Hydroxy-3,5-diiodobenzylidene)amino]benzoic acid]	62.5 µM (≈ 30.8 µg/mL)	62.5 µM (≈ 30.8 µg/mL)	62.5 µM (≈ 30.8 µg/mL)	62.5 µM (≈ 30.8 µg/mL)	500 µM (≈ 247 µg/mL)	500 µM (≈ 247 µg/mL)	500 µM (≈ 247 µg/mL)	500 µM (≈ 247 µg/mL)	500 µM (≈ 247 µg/mL)	500 µM (≈ 247 µg/mL)	250 µM (≈ 123 µg/mL)	500 µM (≈ 247 µg/mL)	500 µM (≈ 247 µg/mL)	250 µM (≈ 123 µg/mL)	250 µM (≈ 123 µg/mL)	250 µM (≈ 123 µg/mL)	7.81 µM (≈ 3.85 µg/mL)	7.81 µM (≈ 3.85 µg/mL)	31.2 µM (≈ 15.4 µg/mL)	31.2 µM (≈ 15.4 µg/mL)	MIC (Candida glabrata 20/I; 24 h, read-out: MIC CG 24 h): 7.81 µM (≈ 3.85 µg/mL); MIC (Candida glabrata 20/I; 48 h, read-out: MIC CG 48 h): 7.81 µM (≈ 3.85 µg/mL); MIC (Trichosporon asahii 1188; 24 h, read-out: MIC TA 24 h): 15.6 µM (≈ 7.7 µg/mL); MIC (Trichosporon asahii 1188; 48 h, read-out: MIC TA 48 h): 15.6 µM (≈ 7.7 µg/mL); MIC ([9]; 24 h, read-out: MIC AF 24 h): 125 µM (≈ 61.6 µg/mL); MIC ([9]; 48 h, read-out: MIC AF 48 h): 125 µM (≈ 61.6 µg/mL); MIC ([10]; 24 h, read-out: MIC LC 24 h): 250 µM (≈ 123 µg/mL); MIC ([10]; 48 h, read-out: MIC LC 48 h): 250 µM (≈ 123 µg/mL); MIC ([11]; 72 h, read-out: MIC TI 72 h): 7.81 µM (≈ 3.85 µg/mL); MIC ([11]; 120 h, read-out: MIC TI 120 h): 7.81 µM (≈ 3.85 µg/mL); IC50 (HepG2 cells): 57.8 µM; MIC KP-E 24 h [12]: 500 µM (≈ 247 µg/mL); MIC KP-E 48 h [12]: 500 µM (≈ 247 µg/mL)
O=C(O)c1ccc(N=Cc2ccc([N+](=O)[O-])o2)cc1 [1r, 4-{[(5-Nitrofuran-2-yl)methylene]amino}benzoic acid]	62.5 µM (≈ 16.3 µg/mL)	62.5 µM (≈ 16.3 µg/mL)	125 µM (≈ 32.5 µg/mL)	125 µM (≈ 32.5 µg/mL)	> 500 µM	> 500 µM	> 500 µM	> 500 µM	250 µM (≈ 65.1 µg/mL)	500 µM (≈ 130 µg/mL)	62.5 µM (≈ 16.3 µg/mL)	125 µM (≈ 32.5 µg/mL)	250 µM (≈ 65.1 µg/mL)	125 µM (≈ 32.5 µg/mL)	125 µM (≈ 32.5 µg/mL)	250 µM (≈ 65.1 µg/mL)	250 µM (≈ 65.1 µg/mL)	250 µM (≈ 65.1 µg/mL)	62.5 µM (≈ 16.3 µg/mL)	62.5 µM (≈ 16.3 µg/mL)	MIC (Candida glabrata 20/I; 24 h, read-out: MIC CG 24 h): 250 µM (≈ 65.1 µg/mL); MIC (Candida glabrata 20/I; 48 h, read-out: MIC CG 48 h): 250 µM (≈ 65.1 µg/mL); MIC (Trichosporon asahii 1188; 24 h, read-out: MIC TA 24 h): 500 µM (≈ 130 µg/mL); MIC (Trichosporon asahii 1188; 48 h, read-out: MIC TA 48 h): 500 µM (≈ 130 µg/mL); MIC ([9]; 24 h, read-out: MIC AF 24 h): > 500 µM; MIC ([9]; 48 h, read-out: MIC AF 48 h): > 500 µM; MIC ([10]; 24 h, read-out: MIC LC 24 h): > 500 µM; MIC ([10]; 48 h, read-out: MIC LC 48 h): > 500 µM; MIC ([11]; 72 h, read-out: MIC TI 72 h): 250 µM (≈ 65.1 µg/mL); MIC ([11]; 120 h, read-out: MIC TI 120 h): 250 µM (≈ 65.1 µg/mL); IC50 (HepG2 cells): 15 µM; MIC KP-E 24 h [12]: 500 µM (≈ 130 µg/mL); MIC KP-E 48 h [12]: 500 µM (≈ 130 µg/mL)
O=C(O)c1ccc(NCc2ccccc2O)cc1 [1u, 4-[(2-Hydroxybenzyl)amino]benzoic acid]	> 500 µM	> 500 µM	> 500 µM	> 500 µM	> 500 µM	> 500 µM	> 500 µM	> 500 µM	> 1000 µM	> 1000 µM	1000 µM (≈ 243 µg/mL)	1000 µM (≈ 243 µg/mL)	1000 µM (≈ 243 µg/mL)	1000 µM (≈ 243 µg/mL)	1000 µM (≈ 243 µg/mL)	1000 µM (≈ 243 µg/mL)	> 500 µM	> 500 µM	> 500 µM	> 500 µM	MIC (Candida glabrata 20/I; 24 h, read-out: MIC CG 24 h): > 500 µM; MIC (Candida glabrata 20/I; 48 h, read-out: MIC CG 48 h): > 500 µM; MIC (Trichosporon asahii 1188; 24 h, read-out: MIC TA 24 h): > 500 µM; MIC (Trichosporon asahii 1188; 48 h, read-out: MIC TA 48 h): > 500 µM; MIC ([9]; 24 h, read-out: MIC AF 24 h): > 500 µM; MIC ([9]; 48 h, read-out: MIC AF 48 h): > 500 µM; MIC ([10]; 24 h, read-out: MIC LC 24 h): > 500 µM; MIC ([10]; 48 h, read-out: MIC LC 48 h): > 500 µM; MIC ([11]; 72 h, read-out: MIC TI 72 h): > 500 µM; MIC ([11]; 120 h, read-out: MIC TI 120 h): > 500 µM; IC50 (HepG2 cells): > 500 µM; MIC KP-E 24 h [12]: >500 µM; MIC KP-E 48 h [12]: >500 µM
